# Measurements: patent US5342970A, “Hydrosoluble coumarin derivatives, their preparation and their use as an enzyme substrate or for the preparation of such substrates” (priority 1991, dated 1994)
# Values joined by “and” are separate entries in the source; they are usually repeats but may differ in a detail not shown here. Equal entries are not always repeated. Structures can show the parent of a compound that is named as a salt. Where two headings read alike, the source gives them in different places.
# Columns and labels:
# [1] = Ratio of fluorescence intensities of hydrolysis product and substrate; type: physicochemical; settings: equimolar concentration, at the measurement wavelength
# [2] = Solubility in water and in water-ethanol mixtures; type: physicochemical; settings: water; read-out: Solubility in water
# [3] = Excitation and emission spectra of substrates and hydrolysis products (Table 1); type: physicochemical
# Leucine aminopeptidase [4] = test: Determination of leucine aminopeptidase, analytical characteristics of the reaction; type: biochemical
# Description: The reaction conditions were determined following the preceding stage. The Leu-ATC substrate concentration was chosen to give a maximum speed (1 mM). The reaction time was made 12 minutes by measuring the difference of the fluorescence intensities at 12 and 2 minutes. In order to evaluate the quantification limit, measure the repeatability and test the linearity, […] were prepared containing concentrations of 0-0.05-0.10-0.25-0.50-1 μg/ml using the same reagents as previously and giving the following range:
# In order to carry out the evaluation, a series of tubes was prepared containing 750 μl of water+250 μl of 1.17N perchloric solution and at time 2 min, transfer thereto took place of 250 μl of each sample of the enzyme range. The same took place at time 12 min. This was followed by the dilution of all the tubes to 1/200 in water and the reading of the fluorescence (370/480 nm) with a gain of 2 on the Perkin Elmer LS3B fluorimeter.
# The results obtained are given in FIG. 25, with which is the mean calibration curve illustrating the variation of the fluorescence intensity as a function of the enzyme concentration (μg/ml). This calibration curve was determined by linear regression. The mean standard deviation is 153±7.36 for the gradient and -3.10±1.16 for the intercept.
# The quantification limit, calculated by the ratio […], is 0.02 μg/ml.
# The repeatability, evaluated by the variation coefficient, is 17% at 0.05 μg/ml, 8% at 0.25 μg/ml and 4% at 1 μg/ml.
# Leucine aminopeptidase [5] = test: Enzymatic hydrolysis of substrate by leucine aminopeptidase, Michaelis kinetics; type: biochemical
# Description: As a result of the possible presence in the substrate Leu ATC (compound 13) of a trace of ATC, i.e. 7-amino-4-(2',5',8'-trioxanonyl)-coumarin, which is the hydrolysis product, use was made of a kinetic method for determining the enzymatic activity of leucine aminopeptidase, i.e. the signal is constituted by the fluorescence intensity difference at 2 minutes and 12 minutes. In this way it is possible to eliminate the interference of the ATC present prior to hydrolysis.
# The initial speed of the reaction was studied for a concentration of the substrate constituted by compound 13 (Leu-ATC) between 2×10^-5 mole/l and […] using the following reagents:
# Crystalline Leu-ATC hydrochloride of example 13: aqueous solutions 4×10^-5 to 4×10^-3 mole/l,
# Leucine aminopeptidase (Sigma, ref N5006): aqueous solution at 7.53 μg/ml in 0.2M Tris buffer, pH7.8,
# Tris buffer: solution A: 0.2M Tris, i.e. 24.23 g/l, solution B: 0.1M HCl.
# This buffer is prepared by mixing 25 ml of solution A and 33.7 ml of solution B and by topping up to 100 ml with water. The pH must be 7.8.
# 1.17N perchloric acid solution (1/10 dilution of the pure acid).
# For this determination, preparation firstly takes place in tubes of the following range of substrate concentrations (compound 13, Leu-ATC): 0-2-4-10-20-50-100-200×10^-5 M (final concentration).
# To each tube is added a concentration of 1.51 μg/ml of Leucine aminopeptidase, everything being dissolved in the Tris buffer at pH 7.8, preheated to 37° C., whilst the tubes are in a water bath thermostatically controlled to 37° C. After 2 min, 250 μl are removed from each tube and poured into tubes containing 250 μl of perchloric solution and 750 μl of water. The same operation is repeated after 6 min. All the tubes are diluted to 1/1000. The intensity of the fluorescence IF is measured at 370/480 nm. The difference of the intensities at 6 and 2 min: […] constitutes the signal.
# The corresponding ATC concentration is calculated relative to a calibration range between 10^-9 and 10^-8 M. The results are given in the following table 2:
# The speed constant kcat is calculated by the ratio Vm/Ez, in which Vm is the maximum speed in μmole/s/mg/Ez and Ez is the enzyme quantity in 1 mg, expressed in μmole. The molar mass of Leucine aminopeptidase is 300000.
# This curve has a hyperbolic behaviour characteristic of a Michaelis kinetics. The experimental points were adjusted to the corresponding equation by non-linear regression (Graphpad software) and made it possible to determine the affinity constant Km, the maximum speed Vm and the speed constant kcat (ratio of the maximum speed to the enzyme concentration).
# [6] = Excitation and emission spectra of ATC derivatives (Table 4); type: physicochemical; settings: 10^-7 M; Z-Arg-ATC in 50 mM Tris pH 8, 10 mM CaCl2
# Description: The excitation and emission spectra of ATC and Z-Arg-ATC were plotted on the basis of 10^-7 M solutions in the 50 mM Tris buffer at pH 8 containing 10 mM of CaCl2. The maxima obtained are indicated in table 4 with the corresponding maxima of Leu-ATC.
# Leucine aminopeptidase [7] = settings: known substrates, for comparison; medium with organic solvent; cited from earlier work
# Leucine aminopeptidase [8] = settings: comparison substrate Leu-AMC; cited from earlier work
# [9] = substrate: COCCOCCOCc1cc(=O)oc2cc(NC(=O)[C@H](CCCNC(=N)N)NC(=O)OCc3ccccc3)ccc12; test: Hydrolysis of substrate by trypsin, Michaelis kinetics; type: biochemical, pig; settings: other: Tris buffer pH 8.0 + CaCl2 10 mM, ambient temperature
# Description: Crystalline Z-Arg-ATC hydrochloride (Seratec): 10^-3 M solution in Tris buffer, pH 8.0+CACl2, 10 mM.
# Pig pancreas trypsin (SIGMA T0134): 10^-3 M solution in Tris buffer, pH 8.0+CACl2, 10 mM.
# Tris buffer: solution A: 0.2M Tris, i.e. 24.23 g/l+CaCl2, 40 mM, i.e. 5.88 g/l; solution B: 0.1M HCl.
# This buffer is prepared by mixing 250 ml of solution A with 268 ml of solution B and by topping up to 1 liter with water.
# Acetate buffer: solution A: 0.02M acetic acid; solution B: 0.02M sodium acetate.
# This buffer is prepared by mixing volume by volume solutions A and B to obtain a buffer at pH 4.75.
# Aqueous 1.17N perchloric acid solution (1/10 dilution of pure acid).
# The following substrate concentration range was prepared in tubes: 0-0.2-0.5-1-2-5-10×10^-4 M (final concentration).
# To each tube was added a concentration of 6.67 μg/ml of trypsin, everything being dissolved in the Tris buffer pH 8.0+CaCl2, 10 mM and at ambient temperature. The enzyme is added at time 0. After 2 minutes, 250 μl are removed from each tube and poured into tubes containing 250 μl of 1.17N perchloric acid and 500 μl of water. The tubes are centrifuged and then the solution is diluted to 1/250 in the acetate buffer. The same operation is repeated at 17 min. The fluorescence intensity is measured at 380/490nm. The difference of the intensities at 17 and 2 min constitutes the signal.
# The corresponding ATC concentration is calculated compared with a calibration range from 5×10^-9 to 2×10^-7 M.
# This was followed by the determination of Km, Vm, kcat and the ratio kcat/Km. The results obtained are given in table 6, which also gives for comparison purposes the values obtained with Z-L-Arg-AMC and Bz DL Arg-AMC and Bz -L-Arg-AMC.
# [10] = fluorescence intensity vs enzyme concentration (μg/ml), linear regression
# [11] = Tris buffer pH 7.8, 37° C., no organic solvent
# [12] = words, vs Leu AMC and Leu-βnaphthylamide
molecule,measurement,setting,value
"Nc1ccc2c(CS(=O)(=O)O)cc(=O)oc2c1 [AMCS, 7-amino-4-coumarinyl-methane sulphonic acid, reference compound]",ratio of the fluorescence intensities of the hydrolysis product and the substrate,[1],~250
"COCCOCCOCc1cc(=O)oc2cc(N)ccc12 [Compound 4, 7-amino-4-(2',5',8'-trioxanonyl)coumarin]",ratio of the fluorescence intensities of the hydrolysis product and the substrate,[1],approximately 400
same,solubility,[2],400 µg/mL and 1330 µM
same,"Maximum excitation wavelength, hydrolysis product","[3]; 10^-7 M in Tris buffer, pH 7.8",350 nm
same,"Maximum fluorescence wavelength, hydrolysis product","[3]; 10^-7 M in Tris buffer, pH 7.8",465 nm
"COCCOCCOCc1cc(=O)oc2cc(NC(=O)[C@@H](N)CC(C)C)ccc12 [Compound 13, L-leucine-4-(2',5',8'-trioxanonyl)-7-coumarinylamide hydrochloride]",repeatability (variation coefficient),Leucine aminopeptidase [4]; at 0.05 μg/ml enzyme,17%
same,repeatability (variation coefficient),Leucine aminopeptidase [4]; at 0.25 μg/ml enzyme,8%
same,repeatability (variation coefficient),Leucine aminopeptidase [4]; at 1 μg/ml enzyme,4%
same,gradient of calibration curve,Leucine aminopeptidase [4]; [10],153±7.36
same,intercept of calibration curve,Leucine aminopeptidase [4]; [10],-3.10±1.16
same,quantification limit,"Leucine aminopeptidase [4]; leucine aminopeptidase, ratio 3 b/a, substrate 1 mM, 12 min",0.02 µg/mL
same,ATC concentration in hydrolysis solution,Leucine aminopeptidase [5]; Leu-ATC 2×10^-5 M,1.7 µM/min
same,ATC concentration in working solution,Leucine aminopeptidase [5]; Leu-ATC 2×10^-5 M,1.38 nM
same,IF(6)-IF(2),Leucine aminopeptidase [5]; Leu-ATC 2×10^-5 M,5.5
same,ATC concentration in hydrolysis solution,Leucine aminopeptidase [5]; Leu-ATC 4×10^-5 M,3.6 µM/min
same,ATC concentration in working solution,Leucine aminopeptidase [5]; Leu-ATC 4×10^-5 M,2.88 nM
same,IF(6)-IF(2),Leucine aminopeptidase [5]; Leu-ATC 4×10^-5 M,11.5
same,ATC concentration in hydrolysis solution,Leucine aminopeptidase [5]; Leu-ATC 10×10^-5 M,6.6 µM/min
same,ATC concentration in working solution,Leucine aminopeptidase [5]; Leu-ATC 10×10^-5 M,5.25 nM
same,IF(6)-IF(2),Leucine aminopeptidase [5]; Leu-ATC 10×10^-5 M,21
same,ATC concentration in hydrolysis solution,Leucine aminopeptidase [5]; Leu-ATC 20×10^-5 M,12.0 µM/min
same,ATC concentration in working solution,Leucine aminopeptidase [5]; Leu-ATC 20×10^-5 M,9.63 nM
same,IF(6)-IF(2),Leucine aminopeptidase [5]; Leu-ATC 20×10^-5 M,38.5
same,ATC concentration in hydrolysis solution,Leucine aminopeptidase [5]; Leu-ATC 50×10^-5 M,14.1 µM/min
same,ATC concentration in working solution,Leucine aminopeptidase [5]; Leu-ATC 50×10^-5 M,11.25 nM
same,IF(6)-IF(2),Leucine aminopeptidase [5]; Leu-ATC 50×10^-5 M,45
same,ATC concentration in hydrolysis solution,Leucine aminopeptidase [5]; Leu-ATC 100×10^-5 M,14.7 µM/min
same,ATC concentration in working solution,Leucine aminopeptidase [5]; Leu-ATC 100×10^-5 M,11.75 nM
same,IF(6)-IF(2),Leucine aminopeptidase [5]; Leu-ATC 100×10^-5 M,47
same,ATC concentration in hydrolysis solution,Leucine aminopeptidase [5]; Leu-ATC 200×10^-5 M,15.0 µM/min
same,ATC concentration in working solution,Leucine aminopeptidase [5]; Leu-ATC 200×10^-5 M,12.0 nM
same,IF(6)-IF(2),Leucine aminopeptidase [5]; Leu-ATC 200×10^-5 M,48
same,Km,Leucine aminopeptidase [5]; [11],110 µM
same,Vm,Leucine aminopeptidase [5]; [11],10.3 μmole/mg Ez/min
same,kcat,"Leucine aminopeptidase [5]; ratio Vm/Ez, pH 7.8, 37° C.",51.5 s⁻¹
same,affinity for Leucine aminopeptidase compared with the other substrates,Leucine aminopeptidase [5]; [12],better than that of the two other substrates
same,maximum speed compared with the other substrates,Leucine aminopeptidase [5]; [12],higher
same,"Maximum excitation wavelength, substrate","[3]; 10^-7 M in Tris buffer, pH 7.8",330 nm
same,"Maximum fluorescence wavelength, substrate","[3]; 10^-7 M in Tris buffer, pH 7.8",405 nm
same,Stokes displacement compared with AMC and AMCS derivatives,[3]; words,greater
same,"excitation maximum, substrate",[6],330 nm
same,"fluorescence maximum, substrate",[6],405 nm
Cc1cc(=O)oc2cc(NC(=O)[C@@H](N)CC(C)C)ccc12 [Leu AMC],Km,Leucine aminopeptidase [7],160 µM
same,Vm,Leucine aminopeptidase [7],4.0 μmole/mg Ez/min
same,detection limit,Leucine aminopeptidase [8],0.03 µg/mL
same,"Maximum excitation wavelength, substrate","[3]; 10^-7 M in Tris buffer, pH 7.8",327 nm
same,"Maximum fluorescence wavelength, substrate","[3]; 10^-7 M in Tris buffer, pH 7.8",390 nm
Pig pancreas trypsin (Sus scrofa) (protein) IVGGYTCAANSIPYQVSLNSGSHFCGGSLINSQWVVSAAHCYKSRIQVRLGEHNIDVLEGNEQFINAAKIITHPNFNGNTLDNDIMLIKLSSPATLNSRVATVSLPRSCAAAGTECLISGWGNTKSSGSSYPSLLQCLKAPVLSDSSCKSSYPGQITGNMICVGFLEGGKDSCQGDSGGPVVCNGQLQGIVSWGYGCAQKNKPGVYTKVCNYVNWIQQTIAAN,Km,[9],195 µM
same,Vmax,[9],3.16 µM/min
same,kcat/Km,[9],975 M⁻¹ s⁻¹
